Literature values in patent US12667579B2, “Pharmaceutical compositions for clinical nutrition” (BAXTER INTERNATIONAL INC., priority 2021, dated 2026).

Columns and labels:
[1] = system: serum alkaline phosphatases
[2] = compounded with 96 mEq/L of calcium chloride
[3] = ingested orally or enterally

| Molecule | solubility in acetone (acetone) | solubility in ethanol (ethanol) | solubility in water (water) | amount hydrolyzed each day ([1]; individuals with normal serum alkaline phosphatase, hydrolysis completely in plasma) | plasma concentration at which maximum hydrolysis occurs ([1]; plasma, hydrolysis to inorganic phosphate and glycerol) | concentration up to which SGP is stable in compounded solutions [2] | share of ingested aluminum reaching the blood stream [3] |
| --- | --- | --- | --- | --- | --- | --- | --- |
| sodium glycerophosphate [SGP] | essentially insoluble | essentially insoluble | freely soluble | 12 to 15 mmol | > 700 µM | up to 120 mmol/L |  |
| [Al] [aluminum] |  |  |  |  |  |  | < 1% |
